# From patent publication US20240285630A1, “Methods and compositions for improving exercise performance” (MEZZION PHARMA CO., LTD., priority 2021, published 2024)
# What was measured:
# Assay type in all cases: in vivo, human
# [1] = system: adolescents with Fontan physiology; experiment: FUEL Trial resting data (heart rate, blood pressure, oxygen saturation); conditions: baseline to 26-week
# Excerpt: Baseline clinical testing completed before drug initiation included a blood draw to measure brain-type natriuretic peptide (BNP) level, a cardiopulmonary exercise test (CPET) using a standardized cycle ergometer ramp protocol, a standardized echocardiogram, and an assessment of peripheral vascular function using peripheral arterial tonometry (PAT) measured by finger cuff (EndoPAT; Itamar Medical, Israel). Participants who achieved maximal effort, defined as respiratory exchange ratio (RER)≥1.10 at peak exercise during CPET, were eligible for randomization and study drug initiation. […] End-of-study clinical testing included repeat measurement of serum BNP, CPET, echocardiogram, and PAT.
# The primary analysis used the intention-to-treat population to evaluate the difference in the change in the primary outcome between treatment arms. This difference was assessed with an analysis of covariance (ANCOVA) with fixed factors for ventricular morphology (single left versus single right or mixed) and treatment group, with a continuous covariate of baseline max VO2. For those without data at the 26-week visit, this value was imputed as equal to the baseline value (no change). […] Secondary outcomes of continuous data points were analyzed in the manner described for the primary outcome. […]
# [2] = system: adolescents with Fontan physiology; experiment: FUEL Trial echocardiographic myocardial performance index (MPI), blood pool Doppler
# Excerpt: Generally speaking, MPI (also referred to as the Doppler-derived index or Tei Index) is a measure of ventricular systolic and diastolic function as determined by a focused echocardiogram. It combines systolic and diastolic time intervals to assess heart function. More specifically, MPI can be used to assess ventricular performance represented by a numeric value using cardiac time intervals. This numeric value equals the sum of isovolumetric contraction time (ICT) and isovolumetric relaxation time (IRT) divided by ejection time (ET) and can be determined for either the left or right ventricle. Pellett, A. A., et al.: The Tei Index: Methodology and Disease. State Values. Echocardiography: A Jrnl. of CV Ultrasound & Allied Tech. 21(7):669-672 (2004); and Ulugay, A., Tatli E.: Myocardial performance index. Anadolu Kardiyol Derg. 8(2):143-8 (April 2008), both of which are incorporated herein by reference in their entireties. In the FUEL Trial, the MPI measured the performance of the single functioning ventricle. Thus, the MPI results from the FUEL Trial were determined by velocities obtained from blood pool Doppler assessment of the inflow and outflow tract of the functioning single ventricle. In other words, the FUEL Trial MPI was determined by measuring the cardiac time intervals using pulsed-wave Doppler velocity spectra of the ventricular inflow and outflow of the single functioning ventricle.
# Echocardiograms were performed by sonographers with specific training for this protocol. The primary outcome of interest was MPI using Doppler-based measures of inflow and outflow duration. The duration of inflow into the dominant ventricle and outflow across the dominant semilunar valve were measured and used to calculate MPI using the standard formula. Tei C, Ling L H, Hodge D O, et al.: New index of combined systolic and diastolic myocardial performance: a simple and reproducible measure of cardiac function-a study in normals and dilated cardiomyopathy. J Cardiol, 26(6):357-66 (1995); and Pellet A A et al.: The Tei Index: Methodology and Disease State Values. Echocardiography: A Jrnl Of CV Ultrasound & Allied Tech, 21(7):669-672 (2004). Additional tissue Doppler images were obtained and used to calculate the tissue Doppler based MPI as previously described. Harada K, Tamura M, Toyono M et al.: Comparison of the right ventricular Tei index by tissue Doppler imaging to that obtained by pulsed Doppler in children without heart disease. Am J Cardiol, 90(5):566-9 (2002).
# Whenever possible, three measurements were made and the mean duration was used for the calculation.
# Each subject underwent an echocardiogram at the start and finish of the 26 weeks. […] Table 3. […] The change in the MPI was determined by velocities obtained from blood pool Doppler assessment of the inflow and outflow tract of the single functioning dominant ventricle. All measurements were made by the echocardiography core lab at the Children's Hospital of Wisconsin.
# [3] = system: adolescents with Fontan physiology; experiment: FUEL Trial serum brain-type natriuretic peptide (BNP) level; conditions: ANCOVA; listed as udenafil
compound,measurement,setting,value
"CCCOc1ccc(S(=O)(=O)NCCC2CCCN2C)cc1-c1nc2c(CCC)nn(C)c2c(=O)[nH]1 (stereo not shown) [Udenafil, udenafil]","Change in resting heart rate, respiratory rate, or systolic blood pressure, udenafil vs placebo",[1],no difference
same,"MPI, median of the difference Week 26 - baseline",[2]; ITT population,−0.01
same,"MPI difference Week 26 - baseline, LS Mean Dif A − B (SE), udenafil minus placebo","[2]; ITT population, ANCOVA",−0.03 (0.014)
same,"MPI at Week 26, LS Mean Dif A − B (SE), udenafil minus placebo","[2]; ITT population, ANOVA",−0.04 (0.018)
same,"MPI at Week 26, mean","[2]; ITT population, N=146",146: 0.42
same,"MPI, difference Week 26 - baseline, mean","[2]; all participants with paired data n=122, decrease shows improvement, p=0.028 vs placebo",−0.02
same,"MPI, difference in change (treatment - placebo)","[2]; baseline peak VO2 <80% predicted, N=189",−0.04
same,"MPI, difference in change (treatment - placebo)","[2]; baseline peak VO2 ≥80% predicted, N=60",0.01
same,"MPI, 26 week - baseline","[2]; excluding those with baseline peak VO2 ≥80% predicted, n=94",−0.03
same,"Log brain natriuretic peptide, difference LS Mean (SE), udenafil vs placebo",[3],not different between groups
